Measured values: patent US20250073186A1, “COMBINATION TREATMENT METHODS” (Rose Research Center, LLC, priority 2021, published 2025)

Columns and labels:
smokers [1] = settings: bupropion alone; cited from earlier work
cigarette smoking adults = assay: Open-label switching study: side effects (AE/SAE reporting) and adherence; type: in vivo, human; settings: zonisamide added to bupropion
Protocol: There was a data collection period of at least five days to obtain baseline data on use of combustible cigarettes. Participants enrolled in the study received a G6 e-cigarette at V2 for ad libitum use.
At each session, expired air CO was measured along with blood pressure, heart rate, respiratory rate and body weight. Participants also completed questionnaires rating subjective effects of smoking and e-cigarette use. Participants were given enough cartomizers and study drugs to last until their next scheduled session, along with an extra 4 days' worth to allow for flexibility in case sessions need to be rescheduled. E-cigarette usage and study drug compliance were tracked not only by self-reported number of occasions used, but also by cartomizer counts (used or unused) and returned study drugs.
AE/SAE Reporting AEs/SAEs were assessed using questionnaires and interviews at the indicated time points and spontaneous reporting from the time of ICF signature until the EOS for the participant.

smokers [2] = settings: cited from earlier work

| SMILES | typical abstinence rate (smokers [1]) | effect on adverse events associated with bupropion, such as insomnia (cigarette smoking adults) | effect on anger, restlessness and impatience (smokers [2]; during smoking abstinence) | effect on ad libitum smoking (smokers [2]; in vivo) | effect on craving for cigarettes (smokers [2]; in vivo) |
| --- | --- | --- | --- | --- | --- |
| CC(NC(C)(C)C)C(=O)c1cccc(Cl)c1 (centres unmarked) [bupropion] | ~25% |  |  |  |  |
| NS(=O)(=O)Cc1noc2ccccc12 [zonisamide] |  | appeared to reduce incidences of adverse events associated with bupropion | decrease anger, restlessness and impatience | reduce ad libitum smoking | relieve craving for cigarettes |
